Experimental data: patent publication US11926645B2, “Compounds and methods for treatment of viral infections” (priority 2020, dated 2024)
Read-outs that look alike come from different tables or passages of the source.

Experiments:
in vitro [1] = details: human
[2] = female ferrets; oral Reference Compound A 20 mg/kg
[3] = test system: RSV-Fluc (Respiratory Syncytial virus strain A2 containing the firefly luciferase reporter); experiment: microbe, parasite or virus in culture; type: cell-based; details: human respiratory syncytial virus, 72 h, NHBE cells, three days
Plasma stability = details: human
[4] = male Balb/c mice; oral Reference Compound A 24 mg/kg
in vivo [5] = details: male, Sprague-Dawley, rat, po; for AUC(0-inf): Reference Compound A AUCinf.; for Cmax: Reference Compound A Cmax
in vitro [6] = details: African green monkey
in vivo [7] = details: male, cynomolgus monkey, po, 5 mg/kg
in vivo [8] = details: male, beagle, dog, po, 5 mg/kg
in vitro [9] = type: cell-based; details: human; host cells A549-ACE2; read-out: CC50, A549-ACE2
Description: The cytotoxicity of compounds was determined in A549-hACE2 cells in the following manner. Compounds (200 nL) were spotted onto 384-well Grenier plates prior to seeding 5000 A549-hACE2 cells/well in a volume of 40 μL culture medium. The plates were incubated at 37° C. for 48 hours with 5% CO2. On day 2, 40 μL of CellTiter-Glo (Promega) was added and mixed 5 times.

SARS-CoV-2 CA/2020 = experiment: microbe, parasite or virus in culture; type: cell-based; details: Severe acute respiratory syndrome coronavirus 2, Vero C1008
in vitro [10] = type: in vitro ADME; details: s9, pH 7.4
Description: (§1) Duplicate aliquots of test compound or positive control substrate (GS-7340) were added to S9 stock diluted with 100 mM potassium phosphate buffer, pH 7.4, to obtain a protein concentration of 2.4 mg/mL. The S9 metabolic reactions were initiated by the addition of the substrates to the S9 reaction mixture to a final concentration of 2 μM. At 2, 12, 25, 45, 65 and 90 min, 25 μL aliquots of the reaction mixture were transferred to plates containing 225 μl of IS/Q solution. After quenching, the plates were centrifuged at 3000×g for 30 minutes, and 150 μl, aliquots of each supernatant were diluted with 150 μl, water. Aliquots (10 μL) of the diluted supernatant were analyzed on a Thermo Q-Exactive mass spectrometer as described below.
(§2) Quantification of test compounds and controls was performed by analyte/internal standard peak area ratio (PAR) values measured on a Thermo Q-Exactive mass spectrometer coupled to a Dionex UltiMate 3000 HPLC with a Leap Technologies HTC PAL autosampler. The column used was a Thermo Hypersil GOLD (1.9 μm particle size, 2.1×50 mm). Mobile phase A consisted of 0.1% (v/v) formic acid in water. Mobile phase B consisted of 0.1% (v/v) formic acid in acetonitrile. Elution of analytes was achieved by a series of linear gradients of acetonitrile in water containing 0.1% (v/v) formic acid. The mass spectrometer was calibrated on a weekly basis and mass tolerance of 5 ppm was used.

in vitro [11] = details: human; remark: listed apart in the source
[12] = ferrets, single dose, Reference Compound A i.v. 20 mg/kg
in vitro [13] = type: in vitro ADME, Human; details: human, s9, pH 7.4
Description: as §1, with “mM” for “mM potassium”, “buffered saline,” for “buffer,”, “1.0” for “2.4”, “0, 10, 20, 30, 60” for “2, 12, 25, 45, 65”, “120” for “90”, “μL” for “μl,”
as §2

SARS-CoV-2 BZ/2021 P.1 = experiment: microbe, parasite or virus in culture; type: cell-based; details: Severe acute respiratory syndrome coronavirus 2, Vero C1008
in vitro [14] = details: hamster
SARS-CoV-2 WA1/2020 A = experiment: microbe, parasite or virus in culture; type: cell-based; details: Severe acute respiratory syndrome coronavirus 2, Vero C1008
[15] = male beagle dogs; oral Reference Compound A 5 mg/kg
SARS-CoV-2-Nluc viruses = experiment: microbe, parasite or virus in culture; type: cell-based; details: Severe acute respiratory syndrome coronavirus 2; host cells A549-ACE2; read-out: EC50, WA1/2020-nano luciferase
[16] = test system: SARS-CoV-2 SA/2020 B.1.351; experiment: microbe, parasite or virus in culture; type: cell-based; details: Severe acute respiratory syndrome coronavirus 2, Vero C1008
in vivo [17] = details: female, po, 20 mg/kg
in vitro [18] = details: human, PrestoBlue
in vivo [19] = details: male, Balb/c, mouse, po, 24 mg/kg
[20] = male cynomolgus monkeys; oral Reference Compound A 5 mg/kg

In the case of `N#C[C@@]1(c2ccc3c(N)ncnn23)O[C@H](CO)[C@@H](O)[C@H]1O` [Reference Compound A, (2R,3R,4S,5R)-2-(4-aminopyrrolo[2,1-f][1,2,4]triazin-7-yl)-3,4-dihydroxy-5-(hydroxymethyl)tetrahydrofuran-2-carbonitrile], the CC50 (in vitro [1]) is reported as over 100000 nM, the “Reference Compound A F % (based on Reference Compound A mg-eq dose)” value [2] is reported as 87% and the EC50 [3] is reported as 1970 nM. For the same compound, the half-life at 2 μM (Plasma stability) was over 25 h, the “Reference Compound A F % (based on compound A mg-eq dose)” value [4] was 33% and the AUC(0-inf) (in vivo [5]; 5 mg/kg) was 3.07 µM·h. The Cmax (in vivo [5]; 5 mg/kg) was 0.875 µM, the AUC(0-inf) (in vivo [5]; 10 mg/kg) was 2.36 µM·h and the Cmax (in vivo [5]; 10 mg/kg) was 0.578 µM. The CC50 (in vitro [6]) was over 100000 nM, the AUC(0-inf) (in vivo [7]) was 1.86 µM·h and the Cmax (in vivo [7]) was 0.536 µM. For the same compound, the AUC(0-inf) (in vivo [8]) was 83.9 µM·h, the Cmax (in vivo [8]) was 27.3 µM and the CC50 (in vitro [9]) was over 50000 nM. For the same compound, the EC50 (SARS-CoV-2 CA/2020) was 210 nM, the half-life at 2 μM (in vitro [10]) was 9.87 h and the CC50 (in vitro [11]) was over 100000 nM. The “Reference Compound A AUClast” value [12] was 81.1 µM·h, the “Reference Compound A IV - CL” value [12] was 14.3 mL/min/kg and the “Reference Compound A t1/2” value [12] was 3.4 h. The Cmax ([12]; read-out: Reference Compound A Cmax) was 54.2 µM, the half-life at 2 μM (in vitro [13]) was over 11.7 h and the EC50 (SARS-CoV-2 BZ/2021 P.1) was 550 nM. For the same compound, the CC50 (in vitro [14]) was over 100000 nM, the EC50 (SARS-CoV-2 WA1/2020 A) was 680 nM and the “Reference Compound A F % (based on compound A mg-eq dose)” value [15] was 89%. It also gave an EC50 (SARS-CoV-2-Nluc viruses) of 1600 nM, an EC50 [16] of 340 nM and an AUC(0-inf) (in vivo [17]) of 70.9 µM·h. The Cmax (in vivo [17]) was 11.7 µM, the CC50 (in vitro [18]; CC50, F2 HAE, primary HAE donor F2, 72 hours) was over 100000 nM and the CC50 (in vitro [18]; CC50, F3 HAE, primary HAE donor F3, 72 hours) was over 100000 nM. It also gave a CC50 (in vitro [18]; CC50, M2 HAE, primary HAE donor M2, 72 hours) of over 100000 nM, a CC50 (in vitro [18]; CC50, M6 HAE, primary HAE donor M6, 72 hours) of over 100000 nM and an AUC(0-inf) (in vivo [19]) of 45.1 µM·h. For the same compound, the Cmax (in vivo [19]) was 13.7 µM and the “Reference Compound A F % (based on compound A mg-eq dose)” value [20] was 3.4%.
